In publication PMC12735704, “Synthesis of Substituted 1H-Phenalen-1-ones and Nitrogen-Containing Heterocyclic Analogues as Potential Anti-Plasmodial Agents” (Molecules, 2025):
Read-outs that look alike come from different tables or passages of the source.

Tests used:
[1] = tested on: MCF-7 cells; experiment: Cytotoxicity study by MTT proliferation assay; format: cell-based; settings: 72 h; for inhibition at 10 µM: Homo sapiens, MCF7, inhibition of cell growth, read-out: MCF-7 % Inh ± DS (10 μM); for MCF-7 % Inh ± DS (10 μM): inhibition of cell growth
Protocol: • Cytotoxicity study by MTT proliferation assay. MCF-7 cells were purchased from ATCC (Manassas, VA, USA) and cultured in DMEN containing 10% FBS. For 3-(4,5-dimethylthiazol-2-yl)-2,5-diphenyltetrazolium (MTT) (Sigma–Aldrich, St. Louis, MO, USA) analysis, cells were plated in 96-well plates at 10,000 cells/well. Twenty-four hours after plating, vehicle (0.1% DMSO, final concentration) or compound was added to cells at indicated doses. Seventy-two hours following compound addition, MTT was added to each well (0.5 mg/mL, final concentration) and plates were incubated for an additional 3 h at 37 °C. Medium was then aspirated and the formazan product was solubilized in SDS–HCl (20% SDS; HCl 0.02 M). The absorbance of each well was measured at 570 nm using a microplate reader (Sigma–Aldrich, St. Louis, MO, USA).

[2] = tested on: Chloroquine-resistant P. falciparum FCR3; experiment: In vitro antimalarial assay (parasitemia by blood smear, 48 h with compound); format: cell-based, Plasmodium falciparum; settings: mean ± SD of three determinations
Protocol: • In vitro antimalarial assay.
FCR-3 chloroquine-resistant strain of P. falciparum (kindly provided by Dr. Fandeur, Pasteur Institute, Cayenne, France) was cultured on glucose-enriched RPMI 1640 medium, supplemented with 10% human serum at 37 °C. After 24 h of incubation at 37 °C, the medium was replaced by fresh medium supplemented with the compound to be evaluated (initial a screening used a concentration of 10 μg/mL), and incubation was continued for a further 48 h. On the third day of the test, a blood smear was taken from each well, and parasitemia was calculated for each concentration of sample compared to the control. Chloroquine (0.1 μg/mL) was used as a positive control. IC50 values were determined graphically by plotting concentrations (0.01–10 μg/mL) versus percent inhibition. All tests were performed in triplicate.

[3] = tested on: Chloroquine-resistant P. falciparum FCR3; experiment: as above; format: cell-based, Plasmodium falciparum; settings: for antiplasmodium activity (in words): FCR3 strain, tested up to 10 µM
[4] = tested on: Plasmodium falciparum; parameters: method as in PMID 23985373; settings: previously tested compounds; read-out: IC50 (antiplasmodial activity, previously tested compounds); cited from earlier work
[5] = Plasmodium falciparum, FCR3, FCR3 strain

Row | Molecule | inhibition at 10 µM [1] [%] | IC50 [2, 5] [µM] | antiplasmodium activity (in words) [3] | other results
1 | O=C1C=Cc2cccc3ccc(-c4ccccc4)c1c23 [Compound 9, 9-Phenyl-1H-phenalen-1-one] | 6 ± 0.1 | > 10 |  | 
2 | CCN(CC)CCCC(C)Nc1ccnc2cc(Cl)ccc12 (centres unmarked) [Chloroquine, reference compound] |  |  |  | IC50 ([3]; Plasmodium falciparum, FCR3, read-out: Chloroquine-Resistant P. falciparum FCR3 IC50 ± SD): 0.16 ± 0.02 µM
3 | Cc1cccc(C)c1Nc1ccc2cccc3c2c1C(=O)C=C3 [Compound 16, 9-[(2,6-dimethylphenyl)amino]-1H-phenalen-1-one] | 0 | > 10 |  | 
4 | N#Cc1ccc(-c2ccc3cccc4c3c2C(=O)C=C4)cc1 [Compound 10, 4-(1-oxo-1H-phenalen-9-yl)benzonitrile] | 10 ± 1 | > 10 | detrimental to activity | 
5 | O=C1C(I)=Cc2cccc3cccc1c23 [Compound 3, 2-Iodo-1H-phenalen-1-one] | 4 ± 0.4 | > 10 | significant loss in antiplasmodium activity | 
6 | COc1cccc(-c2ccc3cccc4c3c2C(=O)C=C4)c1 [Compound 13, 9-(3-methoxyphenyl)-1H-phenalen-1-one] | 12 ± 0.1 | > 10 |  | 
7 | O=C1C(c2ccccc2)=Cc2cccc3cccc1c23 [Compound 4, 2-phenyl-1H-phenalen-1-one] | 14 ± 0.8 | > 10 | significant loss in antiplasmodium activity | 
8 | N-(1-oxo-1H-phenalene-2-yl)carboxamide [Compound 21] |  |  |  | MCF-7 % Inh ± DS (10 μM) [1]: 8 ± 0.3%; IC50 ([2]; FCR3 strain): > 10 µM
9 | O=C1C=Cc2cccc3ccc(-c4ccc(F)cc4)c1c23 [Compound 11, 9-(4-fluorophenyl)-1H-phenalen-1-one] | 8 ± 0.2 | > 10 |  | 
10 | COc1ccc(Nc2ccc3cccc4c3c2C(=O)C=C4)cc1 [Compound 15, 9-[(4-methoxyphenyl)amino]-1H-phenalen-1-one] | 1 ± 0.4 | > 10 |  | 
11 | O=C1C(Nc2ncccn2)=Cc2cccc3cccc1c23 [Compound 25, 2-(pyrimidin-2-ylamino)-1H-phenalen-1-one] | 16 ± 0.9 | > 10 |  | 
12 | N#Cc1ccc2cccc3c2c1C(=O)C=C3 [Compound 18, 1-oxo-1H-phenalene-9-carbonitrile] | 32 ± 0.5 |  | most potent compound | 
13 | O=C1C=Cc2cccc3ccc(O)c1c23 [Compound 9-OH, 9-hydroxy-1H-phenalen-1-one] | 6 ± 0.7 | < 1 | sub-micromolar activity | IC50 ([2]; FCR3 strain): 0.72 ± 0.06 µM
14 | COc1ccc(C2=CC(=O)c3cccc4cccc2c34)cc1 [Compound 1d] |  |  |  | IC50 [4]: 2.1 µM
15 | COc1ccc(NC2=Cc3cccc4cccc(c34)C2=O)cc1 [Compound 23, 2-(4-methoxyanilino)-1H-phenalen-1-one] | 12 ± 0.6 | > 10 |  | 
16 | O=C1C=Cc2c(O)ccc3ccc(O)c1c23 [Compound 30, 4,9-dihydroxy-1H-phenalen-1-one] | 16 ± 0.4 | > 10 | diminished antiplasmodium activity | 
17 | 2-((2,6-dimethylphenyl)amino)-2,3-dihydro-1H-phenalen-1-one [Compound 24] |  |  |  | MCF-7 % Inh ± DS (10 μM) [1]: 7 ± 0.5%; IC50 ([2]; FCR3 strain): > 10 µM

Row | Molecule | inhibition at 10 µM [1] [%] | IC50 [2, 5] [µM] | antiplasmodium activity (in words) [3] | other results
18 | O=C1C(Br)=Cc2cccc3cccc1c23 [Compound 2, 2-Bromo-1H-phenalen-1-one] | 2 ± 0.7 | < 1 |  | IC50 ([2]; FCR3 strain): 0.7 ± 0.04 µM
19 | COc1ccc(-c2ccc3cccc4c3c2C(=O)C=C4)cc1 [Compound 12, 9-(4-methoxyphenyl)-1H-phenalen-1-one] | 15 ± 0.3 | > 10 |  | 
20 | O=C1C=Cc2cccc3ccc(-c4ccccn4)c1c23 [Compound 1c] |  |  |  | IC50 [4]: 21 µM
21 | COc1ccc2c3c(cncc13)C(=O)C=C2 [Compound 36, 9-methoxy-4H-benzo[de]isoquinolin-4-one] | 5 ± 0.9 | > 10 |  | 
22 | O=C(O)c1cc2cccc3c2c(c1O)C(=O)C=C3 [Compound 34, 9-hydroxy-1-oxo-1H-phenalene-8-carboxylic acid] | 0 | > 10 | lost | 
23 | COc1cccc2c1C(=O)c1c(O)c3c(c(O)c1C2=O)C[C@@](O)(C(=O)CO)C[C@@H]3O[C@H]1C[C@H](N)[C@H](O)[C@H](C)O1 [Adriamycin, reference compound] | 63 ± 4.7 |  |  | 
24 | O=C1C=Cc2cccc3cncc1c23 [Compound 35, 4H-benzo[de]isoquinolin-4-one] | 7 ± 0.1 | > 10 | complete loss of activity | 
25 | NC(=O)c1ccc2cccc3c2c1C(=O)C=C3 [Compound 19, 1-oxo-1H-phenalene-9-carboxamide] | 0 | > 10 | neither the 2-cyano compound (20) nor the 9-amido compound (19) were active, even at 10 µM | 
26 | N#Cc1ccc(C2=Cc3cccc4cccc(c34)C2=O)cc1 [Compound 5, 4-(1-oxo-1H-phenalen-2-yl)benzonitrile] | 12 ± 0.3 | > 10 |  | 
27 | CCOC(=O)c1cc2cccc3c2c(c1O)C(=O)C=C3 [Compound 33, ethyl 9-hydroxy-1-oxo-1H-phenalene-8-carboxylate] | 0 | > 10 | lost | 
28 | O=C1C=Cc2cccc3ccc(Nc4ccc(Cl)cc4)c1c23 [Compound 17, 9-[(4-chlorophenyl)amino]-1H-phenalen-1-one] | 12 ± 0.3 | > 10 |  | 
29 | COc1ccccc1-c1ccc2cccc3c2c1C(=O)C=C3 [Compound 14, 9-(2-methoxyphenyl)-1H-phenalen-1-one] | 15 ± 0.2 | > 10 |  | 
30 | O=C1C(c2ccc(F)cc2)=Cc2cccc3cccc1c23 [Compound 6, 2-(4-fluorophenyl)-1H-phenalen-1-one] | 10 ± 2 | > 10 |  | 
31 | O=C1C(Nc2ccc(Cl)cc2)=Cc2cccc3cccc1c23 [Compound 22, 2-[(4-chloroanilino]-1H-phenalen-1-one] | 42 ± 0.1 | > 10 |  | 
32 | N#CC1=Cc2cccc3cccc(c23)C1=O [Compound 20, 1-oxo-1H-phenalene-2-carbonitrile] | 11 ± 0.2 | > 10 | neither the 2-cyano compound (20) nor the 9-amido compound (19) were active, even at 10 µM | 
33 | O=C1C=Cc2cccc3cccc1c23 [Compound 1, 1H-phenalen-1-one] | 16 ± 0.4 | 2.46 ± 0.08 |  | 
34 | O=C1C(c2ccoc2)=Cc2cccc3cccc1c23 [Compound 7, 2-(3-furyl)-1H-phenalen-1-one] | 22 ± 0.2 | > 10 | significant loss in antiplasmodium activity | 
